We go through one compound from patent US20260015364A1, “PIPERAZINE BRIDGE-SUBSTITUTED HETEROCYCLIC PYRIMIDINE COMPOUND” (MEDSHINE DISCOVERY INC., priority 2022, published 2026).

Assay [1] deals with AsPC-1 human pancreatic cancer cells with KRAS^G12D mutation. Description: AsPC-1 3D CTG experiment (anti-proliferation). The class given is cell-based. The note with it: ASPC1, 168 h, 7 days incubation. The text has this:
This experiment aims to verify the inhibitory effect of the compounds of the present disclosure on the proliferation of AsPC-1 human pancreatic cancer cells with KRAS^G12D mutation.
Cell line AsPC-1 and RPMI-1640 medium were purchased from GIBCO, and FBS was purchased from Hyclone. The 96-well plate was purchased from Ultra Low Cluster, CellTiter-Glo® 3D Cell Viability Assay reagents (chemiluminescent 3D cell viability assay reagents) were purchased from Promega, and 2104 EnVision plate reader was purchased from PerkinElmer.
AsPC-1 cells were cultured in an incubator at 37° C. with 5% CO2 the conditions of RPMI-1640+10% FBS. Regular passaging was performed, and cells in the logarithmic growth phase were selected for plating. AsPC-1 cells were seeded in a 96-well U-bottom cell culture plate, and each well of 135 μL cell suspension contained 500 AsPC-1 cells. The culture plate was cultured overnight in a 37° C., 5% CO2 incubator with 100% relative humidity. The test compound was diluted 5-fold to the eighth concentration using a pipette, ranging from 200 μM to 2.56 nM, and tested in duplicate. 78 μL of culture medium per well was added to an intermediate plate. Subsequently, 2 μL of the gradient diluted compound per well was transferred to the corresponding wells of the intermediate plate and mixed well. […] A multimode microplate reader was used for reading. […]

Assay [2] concerns PANC04.03 cell subcutaneously transplanted tumors. Description: In vivo pharmacodynamic experiment of PANC04.03 tumor model. Set-up: species or system Balb/c Nude mice. The settings on record: p.o., BID, 28 days of administration. The protocol: In vivo pharmacodynamics of PANC04.03 cell subcutaneously transplanted tumors in Balb/c Nude mice model with human pancreatic cancer
Cell culture: Human pancreatic cancer PANC04.03 cells were cultured in monolayer in vitro. The culture conditions were RPMI-1640+15% FBS+10 units/mL insulin, and cultured in a 37° C., 5% carbon dioxide incubator. Routine digestion with trypsin-EDTA was performed twice a week for passaging. When the cell saturation reached 80% to 90% and the required quantity was reached, the cells were harvested, counted, and resuspended in an appropriate amount of PBS to obtain a cell suspension with a cell density of 25×10^6 cells/mL.
Cell inoculation: 0.2 mL (5×10^6 cells/mouse) of PANC04.03 cells were subcutaneously inoculated into the right back of each mouse.
Experimental operation: When the average tumor volume reached 190 mm^3, the mice were randomly divided into groups according to the tumor volume, with 6 animals in each group. The blank group was administered with a dose of 0, and the test group was orally administered with a dose of 30 mg/kg, 100 mg/kg, 150 mg/kg, and a volume of 10 μL/g, respectively, and was administered twice a day for 28 days.
Tumor diameters were measured twice a week with a vernier caliper. The formula for calculating tumor volume is: V=0.5a×b^2, wherein a and b represent the long and short diameters of the tumor, respectively.
The tumor inhibitory efficacy of the compound was evaluated by TGI (%) or relative tumor proliferation rate T/C (%). Relative tumor proliferation rate T/C (%)=TRTV/CRTV×100% (TRTV:RTV of treatment group; CRTV:RTV of negative control group). The relative tumor volume (RTV) was calculated based on the results of tumor measurements. The calculation formula is RTV=Vt/V0, where V0 is the average tumor volume measured at the beginning of administration in groups (i.e., D0), and Vt is the average tumor volume measured at a certain measurement. TRTV and CRTV used the data from the same day.
TGI (%) reflected the tumor growth inhibition rate. […]

In assay [3] the test system is GP2D human colon cancer cells with KRAS^G12D mutation. The assay is described as follows: GP2D 3D CTG experiment (anti-proliferation). The note with it: 120 h, 5 days incubation. The class given is cell-based. The source says:
This experiment aims to verify the inhibitory effect of the compounds of the present disclosure on the proliferation of GP2D human colon cancer cells with KRAS^G12D mutation.
Cell line GP2D and DMEM medium were purchased from GIBCO, FBS was purchased from Hyclone, and L-glutamine was purchased from Invitrogen. The 96-well plate was purchased from Ultra Low Cluster. CellTiter-Glo® 3D Cell Viability Assay reagents (chemiluminescent 3D cell viability assay reagents) were purchased from Promega, and 2104 En Vision plate reader was purchased from PerkinElmer.
GP2D cells were cultured in an incubator at 37° C. with 5% CO2 under the conditions of DMEM+10% FBS+2 mM L-glutamine. Regular passaging was performed, and cells in the logarithmic growth phase were selected for plating. GP2D cells were seeded in a 96-well U-bottom cell culture plate, and each well of 135 μL cell suspension contained 6000 GP2D cells. The culture plate was cultured overnight in a 37° C., 5% CO2 incubator with 100% relative humidity. The test compound was diluted 5-fold to the eighth concentration using a pipette, ranging from 200 μM to 2.56 nM, and tested in duplicate. 78 μL of culture medium per well was added to an intermediate plate. […] A multimode microplate reader was used for reading. […]

A word on the IC50: it is the concentration that inhibits the measured activity by half. Higher therefore signals weaker potency. With `C#Cc1c(F)ccc2cc(N)cc(-c3ncc4c(N5CC6CCC(C5)N6)nc(OC[C@@]56CC(=C)CN5C[C@@H]5C[C@@H]56)nc4c3F)c12` (single isomer, unassigned) [Compound 3], the IC50 is 5.74 nM in assay [1] and 0.54 nM in assay [3]. The values for the TGI in assay [2] (30 mpk), in assay [2] (100 mpk) and in assay [2] (150 mpk) were 95.41%, 108.41% and 115.80%, respectively.
